Assay results: patent publication US20110246078A1, “MITOCHONDRIA KATP ION CHANNEL AS A DRUG TARGET FOR PREVENTING LIVER DISEASES AND METHODS TO SCREEN MITOCHONDRIA KATP MODULATORS” (priority 2010, published 2011)
“Also recorded” adds a separate entry of the source.

What follows are compounds tested on pinacidil induced DMR signal in HepG2C3A cells (assay: Label-free RWG biosensor DMR assay, modulation of the pinacidil induced DMR signal). Settings: pre-incubation with compound, pinacidil 40 μM.
Type: cell-based, human
Experimental: Transfection of siRNAs was performed using N-TER Nanoparticle siRNA Transfection System (Cat#N2913) from Sigma-Aldrich Inc. following the manufacturer's instructions. Briefly, 5000 cells were plated in each well of Epic 384-well plates. Cells were transfected with 50 nM siRNA the next day and incubated in siRNA containing medium for 24 hrs before replaced with fresh cell culture medium. Epic cell assay was performed 48 hours after transfection.
(§1) Epic® wavelength interrogation system (Corning Inc., Corning, N.Y.) was used for whole cell sensing. This system consists of a temperature-control unit, an optical detection unit, and an on-board liquid handling unit with robotics. The detection unit is centered on integrated fiber optics, and enables kinetic measures of cellular responses with a time interval of ˜15sec. The compound solutions were introduced by using the on-board liquid handling unit (i.e., pippetting).
The RWG biosensor is capable of detecting minute changes in local index of refraction near the sensor surface. Since the local index of refraction within a cell is a function of density and its distribution of biomass (e.g., proteins, molecular complexes), the biosensor exploits its evanescent wave to non-invasively detect ligand-induced dynamic mass redistribution in native cells. The evanescent wave extends into the cells and exponentially decays over distance, leading to a characteristic sensing volume of ˜150 nm, implying that any optical response mediated through the receptor activation only represents an average over the portion of the cell that the evanescent wave is sampling. The aggregation of many cellular events downstream the receptor activation determines the kinetics and amplitudes of a ligand-induced DMR.
For biosensor cellular assays, compound solutions were made by diluting the stored concentrated solutions with the HBSS (1× Hanks balanced salt solution, plus 20 mM Hepes, pH 7.1), and transferred into a 384well polypropylene compound storage plate to prepare a compound source plate. Two compound source plates were made separately when a two-step assay was performed. In parallel, the cells were washed twice with the HBSS and maintained in 30 μl of the HBSS to prepare a cell assay plate. Both the cell assay plate and the compound source plate(s) were then incubated in the hotel of the reader system. After incubation the baseline wavelengths of all biosensors in the cell assay microplate were recorded and normalized to zero. Afterwards, a 2 to 10 min continuous recording was carried out to establish a baseline, and to ensure that the cells reached a steady state. Cellular responses were then triggered by transferring 10 μl of the compound solutions into the cell assay plate using the on-board liquid handler.
All studies were carried out under controlled temperature (28° C.). At least two independent sets of experiments, each with at least three replicates, were performed.

Compound | effect on the pinacidil induced DMR signal
C=C1[C@@H](C)[C@H]2[C@H](Cc3ccccc3)NC(=O)[C@]23OC(=O)/C=C/[C@H](O)CCC[C@@H](C)C/C=C/[C@H]3[C@@H]1O [cytochalasin B] | dose-dependently reduce
N#C/C(=C/c1ccc(O)c(O)c1)C(=O)NCc1ccccc1 [AG490] | dose-dependently reduced
CCCCNC(=O)NS(=O)(=O)c1ccc(C)cc1 [tobutamide] | dose-dependently inhibited
C/C1=C/C(=O)O[C@@H]2C[C@@H](CC[C@H](C)/C=C\C=C\CC1)O[C@@](O)([C@@H]1CSC(=O)N1)C2 [latrunculin A] | dose-dependently reduce
C[C@@H](N)[C@H]1CC[C@H](C(=O)Nc2ccncc2)CC1 [Y-27632] | reduced the pinacidil induced DMR signal dose-dependently
Cc1ccc(S(=O)(=O)NC(=O)NN2CCCCCC2)cc1 [tolazamide] | dose-dependent inhibition; also recorded: dose-dependently inhibited
C1CCC(N=C(NC23CC4CC(CC(C4)C2)C3)N2CCOCC2)CC1.Cl [U-37883A] | no effect

These compounds were tested on mito-KATP channels in HepG2C3A cells (assay: Label-free RWG biosensor (Epic) DMR cellular assay, agonism mode). Settings: 28° C.
Type: cell-based, human
Source text: as §1
The RWG biosensor is capable of detecting minute changes in local index of refraction near the sensor surface. Since the local index of refraction within a cell is a function of density and its distribution of biomass (e.g., proteins, molecular complexes), the biosensor exploits its evanescent wave to non-invasively detect ligand-induced dynamic mass redistribution in native cells. […]
For biosensor cellular assays, compound solutions were made by diluting the stored concentrated solutions with the HBSS (1× Hanks balanced salt solution, plus 20 mM Hepes, pH 7.1), and transferred into a 384well polypropylene compound storage plate to prepare a compound source plate. […] Both the cell assay plate and the compound source plate(s) were then incubated in the hotel of the reader system. After incubation the baseline wavelengths of all biosensors in the cell assay microplate were recorded and normalized to zero. […]

Compound | pinacidil induced DMR signal (amplitudes and kinetics)
CC(N/C(=N\C#N)Nc1ccncc1)C(C)(C)C (centres unmarked) [pinacidil] | robust; also recorded: concentration dependent
